Data from patent publication US20150157575A1, “Pharmaceutical Formulations Comprising Vilazodone” (Forest Laboratories Holdings Ltd., priority 2013, published 2015).

Key:
CYP3A4 = CYP3A4 (Homo sapiens, UniProt P08684); conditions: in vitro studies; cited from earlier work
[1] = Hepatic impairment studies: safety assessments (AEs, ECG); format: in vivo, human; conditions: for diarrhea, participants: both studies
Procedure: Safety assessments included vital signs, clinical laboratory evaluations, ECG, and the collection of adverse events (AEs). […] AEs were recorded at all study visits and as they were reported spontaneously by the participants, up to 30 days after the vilazodone dose. Participants were asked about their well-being at each visit.
Safety assessments were summarized without statistical comparisons. The last assessment made before the first dose of study drug was used as a baseline for all subsequent analyses.

clinical = assay: clinical; design: species or system human; conditions: both sexes, human, in vivo, Mean trough plasma concentration
Procedure: An open-label, multiple-dose, single-sequence study to evaluate the effect of steady-state carbamazepine XR, 400 mg once daily, a CYP3A4 substrate and inducer, on the pharmacokinetics of steady-state vilazodone 40 mg tablets once daily, with hardness of more than 10 kp and less than 14 kp, preferably about 12 kp as shown in Table 3 (No Tablet Breakage). Vilazodone was co-administered with carbamazepine XR (extended release formulation). Carbamazepine is an antiepileptic drug approved for the treatment of psychomotor and grand mal seizures is metabolized by CYP3A4, and is a CYP3A4 inducer.
All subjects were healthy, nonsmoking male or female volunteers who were 18-45 (Study 2) years of age. Inclusion and exclusion criteria were typical of the criteria used in pharmacokinetic studies in healthy volunteers as known in the art. Inclusion criteria used included agreement to use an effective measure of contraception, body mass index (BMI)>18 and ≦30 kg/m^2 (BMI=18 allowed), normal or clinically non-significant results on physical examination, medical history, serum chemistry, hematology, and urinalysis; negative hepatitis B antigen and C antibody tests, and negative HIV test at screening. Exclusion criteria included clinically significant electrocardiogram results or QT prolongation, clinically significant disease state, history of alcohol abuse, ingestion of food, drink, or drug that may interfere with CYP enzyme activity (e.g., cruciferous vegetables, caffeine, alcohol), known sensitivity to study drug or other drugs from the same class, and use of prohibited concomitant prescription or over-the counter medications.
All volunteers received 4 treatments (A, B, C, and D) in the same, fixed sequence: Treatment A consisted of vilazodone alone on Days 1-9 and was followed by a 14-day washout, Treatment B was carbamazepine XR alone for 19 days (Days 24-42), Treatment C was vilazodone plus carbamazepine XR for 9 days (Days 43-51), and Treatment D was carbamazepine alone for 3 days (Days 52-54). Once-daily doses of study drug were administered in the morning after breakfast; twice-daily doses were administered in the morning after breakfast and 12 hours later in the evening after dinner Study drug was administered within 30 minutes after the end of the corresponding meal.
Blood samples to determine plasma concentrations of vilazodone, M17 (the metabolite of vilazodone), carbamazepine, and carbamazepine-10,11-epoxide (one of the pharmacologically active metabolites of carbamazepine) were collected into tubes pretreated with K2EDTA. For vilazodone and M17 analyses, blood samples (approximately 6 mL) were collected at pre-dose on Days 1, 7, 8, 49, and 50. […] For the analyses of carbamazepine and carbamazepine-10,11-epoxide, blood samples were collected at pre-dose on Days 24, 40, 41, 49 and 50.
Blood samples were centrifuged at no less than 2500 g for 10 minutes at 4° C. within 30 minutes of the sample draw. Plasma was harvested and transferred to polypropylene tubes and flash frozen in a dry ice bath with isopropyl alcohol or methanol. Samples for vilazodone analyses were stored at approximately −70° C. and analyzed. Samples for carbamazepine analyses were stored at −20° C. and analyzed.
Plasma samples were analyzed for vilazodone, M17, carbamazepine and/or carbamazepine-10,11-epoxide concentrations using liquid chromatography coupled with tandem mass spectrometry (LC/MS/MS). For vilazodone and M17, analytes of interest were detected by electrospray ionization mass spectrometry in the negative ion multiple reaction monitoring mode. The assay was linear in the concentration range of 0.5 to 250 ng/mL for vilazodone and 0.25 to 125 ng/mL for M17.
Based on 50 ìL of human plasma with K2EDTA as the anticoagulant, the lower limit of quantification (LLOQ) was 0.5 ng/mL for vilazodone and 0.25 ng/mL for M17. […]

[2] = group with severe hepatic impairment
[3] = matched controls, 20 mg single dose

Sequence of CYP3A4 (P08684 whole entry): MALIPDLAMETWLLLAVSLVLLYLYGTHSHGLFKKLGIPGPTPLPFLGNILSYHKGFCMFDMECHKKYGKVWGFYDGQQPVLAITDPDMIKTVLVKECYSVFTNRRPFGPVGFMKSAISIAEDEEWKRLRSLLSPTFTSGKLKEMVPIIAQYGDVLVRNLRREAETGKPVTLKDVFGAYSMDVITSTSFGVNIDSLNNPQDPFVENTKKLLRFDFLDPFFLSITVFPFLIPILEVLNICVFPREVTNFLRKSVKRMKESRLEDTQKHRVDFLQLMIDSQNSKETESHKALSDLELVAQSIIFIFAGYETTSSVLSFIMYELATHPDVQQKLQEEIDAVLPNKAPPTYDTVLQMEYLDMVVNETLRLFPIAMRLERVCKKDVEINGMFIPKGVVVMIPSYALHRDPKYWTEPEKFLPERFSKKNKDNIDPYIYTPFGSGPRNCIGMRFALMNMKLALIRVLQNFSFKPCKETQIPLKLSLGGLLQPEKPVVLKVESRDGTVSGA

For Cl.N#Cc1ccc2[nH]cc(CCCCN3CCN(c4ccc5oc(C(N)=O)cc5c4)CC3)c2c1 [Vilazodone, 1-[4-(5-cyanoindol-3-yl)butyl]-4-(2-carbamoyl-benzofuran-5-yl)-piperazine hydrochloride], the “inhibitor or inducer of CYP3A4” value (CYP3A4) is listed as “not an inhibitor or inducer”, the “decrease in QT interval (mean, screening to end of study)” value [1, 2] is listed as 14.9 ms and the “increase in QTcB interval (Bazett formula; mean, screening to end of study)” value [1, 2] is listed as 8.7 ms. The “deaths, serious AEs, discontinuations due to an AE” value ([1]; hepatic impairment studies, 20 mg single dose) was “No deaths, serious AEs, or discontinuations due to an AE”, the “diarrhea, participants” value [1, 3] was 5 participants and the “vomiting, participants” value [1, 3] was 0 participants. For the same compound, the “vomiting, participants” value ([1]; participants with hepatic impairment (all severe), 20 mg single dose) was 4 participants, the “diarrhea, participants” value ([1]; participants with hepatic impairment, 20 mg single dose) was 10 participants and the concentration at 7 day (clinical) was 36 ng/mL. The concentration at 8 day (clinical) was 45.1 ng/mL and the concentration at 9 day (clinical) was 45.3 ng/mL.
